Assay results published in patent publication US8791132B2, “Compounds and methods for treatment of hypertension” (Medivation Technologies, Inc., priority 2011, dated 2014).
Like-named read-outs stand apart in the source and are kept apart here.

Key:
[1] = biological target: T1, human recombinant adrenergic α2B receptor (Homo sapiens, UniProt P18089); assay: Radioligand binding, adrenergic α2B ([3H]Rauwolscine); conditions: for Percentage inhibition of ligand binding, Adrenergic α2B / Percentage inhibition of ligand binding, Adrenergic α2B (0.03 μM): compound at 0.03 μM, 0.03 µM; for Percentage inhibition of ligand binding, Adrenergic α2B: repeat assays, each datapoint shown
T1 construct: expressed in transfected cells; host or cells: CHO-K1
T1 sequence (P18089 1-450): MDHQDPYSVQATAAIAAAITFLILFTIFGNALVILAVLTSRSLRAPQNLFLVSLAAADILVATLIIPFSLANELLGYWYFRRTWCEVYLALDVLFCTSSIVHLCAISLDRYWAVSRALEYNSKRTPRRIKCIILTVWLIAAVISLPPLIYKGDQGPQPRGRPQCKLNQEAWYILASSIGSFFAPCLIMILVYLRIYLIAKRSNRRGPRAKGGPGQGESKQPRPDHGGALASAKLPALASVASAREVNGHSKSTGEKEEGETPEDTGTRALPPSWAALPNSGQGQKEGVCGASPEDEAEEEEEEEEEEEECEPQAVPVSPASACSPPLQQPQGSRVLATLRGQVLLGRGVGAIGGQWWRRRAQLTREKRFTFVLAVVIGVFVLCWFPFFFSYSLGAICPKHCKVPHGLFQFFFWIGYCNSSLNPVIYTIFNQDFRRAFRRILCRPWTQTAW
Outline: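 Receptor expressed in CHO-K1 cells, assayed in 50 mM Tris-HCl pH 7.4 with 12.5 mM MgCl2, 1 mM EDTA and 0.2% BSA. Compounds were incubated with 2.5 nM [3H]Rauwolscine for 60 min at 25° C; 10 μM Prazosin defined non-specific binding. Filter counting gave percent inhibition of specific binding.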

[2] = biological target: T2, human recombinant adrenergic α2A receptor (Homo sapiens, UniProt P08913); assay: Radioligand binding, adrenergic α2A ([3H]MK-912)
T2 construct: expressed in transfected cells; host or cells: insect Sf9 cells
T2 sequence (P08913 1-465): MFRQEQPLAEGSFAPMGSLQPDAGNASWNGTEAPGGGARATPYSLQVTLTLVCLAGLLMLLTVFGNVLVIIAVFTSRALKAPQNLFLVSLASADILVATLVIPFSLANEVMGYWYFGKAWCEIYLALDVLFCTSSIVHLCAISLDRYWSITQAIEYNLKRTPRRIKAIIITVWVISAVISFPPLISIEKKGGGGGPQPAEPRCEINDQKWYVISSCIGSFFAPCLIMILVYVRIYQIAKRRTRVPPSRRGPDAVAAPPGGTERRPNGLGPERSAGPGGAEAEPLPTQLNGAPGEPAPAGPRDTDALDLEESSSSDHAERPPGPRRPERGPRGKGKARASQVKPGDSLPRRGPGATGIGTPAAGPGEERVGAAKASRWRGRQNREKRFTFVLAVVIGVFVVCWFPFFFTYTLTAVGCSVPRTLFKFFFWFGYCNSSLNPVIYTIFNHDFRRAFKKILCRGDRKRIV
Outline: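 Displacement of 1 nM [3H]MK-912 from receptor produced in insect Sf9 cells was measured after 60 min at 25 °C. Readout: percent inhibition of specific binding.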

[3] = biological target: T3, rat adrenergic α1B receptor (Rattus norvegicus, UniProt P15823); assay: Radioligand binding, adrenergic α1B ([3H]Prazosin); conditions: for Percentage inhibition of ligand binding, Adrenergic α1B / Percentage inhibition of ligand binding, Adrenergic α1B (0.1 μM): compound at 0.1 μM, 0.1 µM; for Percentage inhibition of ligand binding, Adrenergic α1B: repeat assays, each datapoint shown
T3 construct: rat adrenergic α1B receptor obtained from Wistar Rat liver; from tissue; host or cells: Wistar rat liver
T3 sequence (P15823 1-515): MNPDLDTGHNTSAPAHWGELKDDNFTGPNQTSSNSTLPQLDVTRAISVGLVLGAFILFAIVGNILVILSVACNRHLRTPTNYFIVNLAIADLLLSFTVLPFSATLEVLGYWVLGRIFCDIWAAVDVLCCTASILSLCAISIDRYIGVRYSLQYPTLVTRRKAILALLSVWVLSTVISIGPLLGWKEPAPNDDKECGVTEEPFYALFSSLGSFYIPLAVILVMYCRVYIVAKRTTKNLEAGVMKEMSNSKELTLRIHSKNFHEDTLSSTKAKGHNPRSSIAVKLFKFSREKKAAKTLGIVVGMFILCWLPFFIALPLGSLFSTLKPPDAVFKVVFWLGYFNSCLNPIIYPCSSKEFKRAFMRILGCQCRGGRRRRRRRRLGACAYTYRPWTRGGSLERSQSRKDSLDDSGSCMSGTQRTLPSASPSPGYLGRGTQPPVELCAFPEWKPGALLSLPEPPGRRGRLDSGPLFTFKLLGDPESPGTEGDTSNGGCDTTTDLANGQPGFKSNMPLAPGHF
Outline: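 Rat α1B receptor from Wistar rat liver was incubated with 0.25 nM [3H]prazosin for 60 min at 25 °C in 50 mM Tris-HCl, pH 7.4, 0.5 mM EDTA. Non-specific binding was defined with 10 μM phentolamine. Bound radioligand was measured by filtration and counting, reported as percent inhibition of specific binding.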

[4] = [3H]Rauwolscine, repeat datapoints each shown
[5] = compound at 0.1 μM, [3H]MK-912, repeat datapoints each shown, 0.1 µM
[6] = [3H]Prazosin, repeat datapoints each shown
[7] = read-out: Percentage inhibition of ligand binding, Adrenergic α2B (0.03 μM), compound at 0.03 μM, [3H]Rauwolscine, repeat datapoints each shown
[8] = read-out: Percentage inhibition of ligand binding, Adrenergic α1B (0.1 μM), compound at 0.1 μM, [3H]Prazosin, repeat datapoints each shown
[9] = read-out: Percentage inhibition of ligand binding, Adrenergic α2A (0.1 μM), compound at 0.1 μM, [3H]MK-912, repeat datapoints each shown
[10] = 0.03 μM compound, read-out: Percentage inhibition of ligand binding, Adrenergic α2B
[11] = 0.1 μM compound, read-out: Percentage inhibition of ligand binding, Adrenergic α2A
[12] = 0.1 μM compound, read-out: Percentage inhibition of ligand binding, Adrenergic α1B

Row | SMILES | Percentage inhibition of ligand binding, Adrenergic α2B (0.03 μM) [1, 4] [%] | Percentage inhibition of ligand binding, Adrenergic α2A (0.1 μM) [2, 5] [%] | Percentage inhibition of ligand binding, Adrenergic α1B (0.1 μM) [3, 6] [%] | inhibition at 0.03 µM [1, 7] [%] | inhibition at 0.1 µM [3, 8] [%] | also measured
1 | Cc1cnc2c(c1)c1c(n2CC(O)c2ccncc2)CCN(C)C1 (single isomer, unassigned) [55b, 2-(3,6-dimethyl-5,6,7,8-tetrahydro-1,6,9-triaza-fluoren-9-yl)-1-pyridin-4-yl-ethanol] | – | – | – | – | – | Percentage inhibition of ligand binding, Adrenergic α2B ([1]; [3H]Rauwolscine): 67%; Percentage inhibition of ligand binding, Adrenergic α2A ([2]; compound at 0.1 μM, [3H]MK-912, repeat assays, each datapoint shown, 0.1 µM): 7%; Percentage inhibition of ligand binding, Adrenergic α1B ([3]; [3H]Prazosin): 57%
2 | Cc1ccc2c(c1)c1c(n2CC(N)c2ccncc2)CC2CCC1N2C (single isomer, unassigned) [155b] | 5 | 5 | 1 | – | – | –
3 | Cc1ccc2c(c1)c1c(n2CC(O)c2ccc(F)cc2)CCN2CCCC12 (single isomer, unassigned) [II-120a, 1-(4-fluoro-phenyl)-2-(9-methyl-1,2,3,4,5,10c-hexahydro-3a,6-diaza-cyclopenta[c]fluoren-6-yl)-ethanol] | – | 65 | – | 101 | 99 | –
4 | CN1CCc2c(c3ncccc3n2CC(O)c2ccncc2)C1 (stereo not drawn) [II-241] | – | – | – | -1 | 5 | inhibition at 0.1 µM [2, 9]: -1%
5 | CN1CCc2c(c3cccc(Cl)c3n2CC(C)(O)c2cccnc2)C1 (single isomer, unassigned) [57a, 1-(6-chloro-2-methyl-1,2,3,4-tetrahydro-pyrido[4,3-b]indol-5-yl)-2-pyridin-3-yl-propan-2-ol] | – | – | – | – | – | Percentage inhibition of ligand binding, Adrenergic α2B ([1]; [3H]Rauwolscine): 16%; inhibition at 0.1 µM ([2]; compound at 0.1 μM, [3H]MK-912, repeat assays, each datapoint shown, read-out: Percentage inhibition of ligand binding, Adrenergic α2A): 22%; Percentage inhibition of ligand binding, Adrenergic α1B ([3]; [3H]Prazosin): 3%
6 | CC(O)(Cn1c2c(c3cc(Cl)ccc31)CNCC2)c1ccncc1 (stereo not drawn) [II-62, 1-(8-chloro-1,2,3,4-tetrahydro-pyrido[4,3-b]indol-5-yl)-2-pyridin-4-yl-propan-2-ol] | – | – | – | – | – | inhibition at 0.03 µM [1, 10]: 37%; inhibition at 0.1 µM [2, 11]: 5%; inhibition at 0.1 µM [3, 12]: 14%
7 | Cc1ccc2c(c1)c1c(n2CC(C)(OC(=O)C(C)(C)C)c2cccnc2)CCN(C)C1 (stereo not drawn) [II-16a, 2,2-dimethyl-propionic acid 2-(2,8-dimethyl-1,2,3,4-tetrahydro-pyrido[4,3-b]indol-5-yl)-1-methyl-1-pyridin-3-yl-ethyl ester] | – | – | – | – | – | inhibition at 0.03 µM [1, 10]: 39%; inhibition at 0.1 µM [2, 11]: 11%; inhibition at 0.1 µM [3, 12]: 20%
8 | Cc1cnc2c(c1)c1c(n2CC(C)(O)c2ccc(F)cc2)CCN2CCCC12 (single isomer, unassigned) [II-149d, 2-(4-fluoro-phenyl)-1-(9-methyl-1,2,3,4,5,10c-hexahydro-3a,6,7-triazacyclopenta[c]fluoren-6-yl)-propan-2-ol] | 44 | 7 | 41 | – | – | –

Now from value to compound, other results behind:

Row | Percentage inhibition of ligand binding, Adrenergic α2B (0.03 μM) [1, 4] [%] | Percentage inhibition of ligand binding, Adrenergic α2A (0.1 μM) [2, 5] [%] | Percentage inhibition of ligand binding, Adrenergic α1B (0.1 μM) [3, 6] [%] | inhibition at 0.03 µM [1, 7] [%] | inhibition at 0.1 µM [3, 8] [%] | SMILES | also measured
9 | 61 | 6 | 2 | – | – | Cc1ccc2c(c1)c1c(n2CC(C)(O)c2cccnc2)CCN(C)C1C (single isomer, unassigned) [II-152b] | –
10 | – | – | – | 23 | 5 | Cc1ccc2c(c1)c1c(n2CC(C)(O)c2cnco2)CCN(C)C1 (stereo not drawn) [II-142, 1-(1,2,3,4-tetrahydro-2,8-dimethylpyrido[4,3-b]indol-5-yl)-2-(oxazol-5-yl)propan-2-ol] | inhibition at 0.1 µM [2, 9]: -4%
11 | – | – | – | 73 | 29 | Cc1ccc2c(c1)c1c(n2CC(C)(F)c2cccnc2)CCN(C)C1 (stereo not drawn) [II-212, 5-(2-Fluoro-2-pyridin-3-yl-propyl)-2,8-dimethyl-2,3,4,5-tetrahydro-1H-pyrido[4,3-b]indole] | inhibition at 0.1 µM [2, 9]: 19%
12 | 104 | 54 | 65 | – | – | Cc1ccc2c(c1)c1c(n2CC(C)(O)c2cccnc2)CCN2CCCC12 (single isomer, unassigned) [II-127b, 1-(9-methyl-1,2,3,4,5,10c-hexahydro-3a,6-diaza-cyclopenta[c]fluoren-6-yl)-2-pyridin-3-yl-propan-2-ol] | –
